In brackets after ≈: the same amount, converted by molar mass. Like-named read-outs stand apart in the source and are kept apart here. Each block holds one compound with its values, some of them ahead of it.
Legend:
[1] = Lipid transition temperature of porcine stratum corneum by DSC in vehicles containing oleic acid
Experimental: Stratum corneum sheets were prepared from porcine skin by trypsin treatment. Thus, full thickness porcine skin samples were dermatomed to 350 μm thickness and spread, stratum corneum side up, on filter paper saturated with 0.5% crude trypsin in phosphate buffered saline at pH 7.4 (Sorensen's buffer). After several hours at 37° C. the stratum corneum was peeled away, washed in soybean trypsin inhibitor, water and air dried. Samples were stored desiccated at room temperature until used. Prior to use, […] fatty acid in ethanol, the samples were then washed for ten seconds in ethanol, spread on wire mesh, dried over a desiccant and the dry sample reweighed. The stratum corneum samples were then held for several days in a chamber at 22° C., 95% relative humidity, during which the stratum corneum samples equilibrated to a water content of 30% (w/w).
(§1) The differential scanning calorimeter^5 was used at a scan rate of 0.75° C./minute. Duplicate samples from each of the above FTIR experiments were combined for DSC measurements. Alternately, stratum corneum samples of known weight (about 20 mg) were treated with each fatty acid in the same manner described above. Treated samples were hydrated for several days at 95% R.H., 22° C. and reweighed.

[2] = Experimental: The in vitro flux of piroxicam was measured from ethanol/buffer vehicles containing 0.25% v/v (0.224% w/v) cis-9-octadecenoic acid (oleic acid). The buffer employed was Sorensen's Buffer, pH 7.3-7.4^3, all experiments were carried out at 32° C. […] Buffer only was introduced into the chamber (receiver) in contact with the internal side of the skin. The donor chamber, in contact with the outer side of the skin was filled with the appropriate ethanol/buffer vehicle containing 0.25% v/v cis-9-octadecenoic acid (oleic acid) and an excess of piroxicam.
[3] = Infrared spectra of fatty acid treated porcine stratum corneum; details: C-H antisymmetric stretching, stratum corneum treated with […] fatty acid in ethanol, 30% (w/w) water
Experimental: (§2) Stratum corneum sheets were prepared from porcine skin by trypsin treatment. Thus, full thickness porcine skin samples were dermatomed to 350 μm thickness and spread, stratum corneum side up, on filter paper saturated with 0.5% crude trypsin in phosphate buffered saline at pH 7.4 (Sorensen's buffer). After several hours at 37° C. the stratum corneum was peeled away, washed in soybean trypsin inhibitor, water and air dried. Samples were stored desiccated at room temperature until used. Prior to use, dry skin samples of known weight were incubated for two hours in an 0.15M solution of the appropriate fatty acid in ethanol, the samples were then washed for ten seconds in ethanol, spread on wire mesh, dried over a desiccant and the dry sample reweighed. The stratum corneum samples were then held for several days in a chamber at 22° C., 95% relative humidity, during which the stratum corneum samples equilibrated to a water content of 30% (w/w).
Infrared spectra were obtained with a Fourier Transform Infrared Spectrometer^4 (FTIR) equipped with a liquid nitrogen cooled mercury-cadmium telluride detector. In order to prevent water loss, hydrated samples were sealed between zinc sulfide windows while maintained at 22° C., 95% relative humidity. Sealed samples were placed in the spectrometer where an average of 127 scans were obtained in about six minutes for each of the fatty acid treatments. The digitized data were transferred to a computer (Apple IIe) for determination of frequency and bandwidth of the C--H antisymmetric stretching absorbance. Due to the digital nature of the FTIR instrument, absorbance and frequency data exist only in discrete increments. With the instrument used, the exact value of any frequency point could only be determined with a precision not greater than 2.7 cm^-1. The peak frequency was estimated with much greater precision, however, using a center of gravity algorithm for digitized data reported by Cameron et al., Applied Spectr., 36 245-250 (1982).

[4] = assay type: in vitro ADME, porcine
Experimental: Samples were removed periodically from the receiver side of the diffusion cell, mixed with a Z0 scintillation cocktail (Scintisol, Isolabs, Inc., Akron, OH) and counted for several minutes in a liquid scintillation counter (Model Mark III-6881, Tracor Analytical, Elk Grove Village, IL). Following an initial lag time of about 6 hours, the amount of
salicylic acid appearing in the receiver side was linear with time for the duration of the experiment (routinely 24 to 48 hours). […] This value, when divided by the specific acitivity of salicyclic acid in the saturated solution (approximately 300 dpm/mg) and the area of exposed skin (0.2 cm^2), yielded the flux (mg/cm^2/ hr). Samples removed from the donor side at the beginning and end of the experiment contained, within error, the same amount of salicylic acid. Thus, constant concentration of the permeant was maintained on the donor side throughout the experiment.

[5] = Differential scanning calorimetry of fatty acid treated porcine stratum corneum; details: stratum corneum treated with […] fatty acid in ethanol, 30% (w/w) water
Experimental: as §2, §1

[6] = physchem; details: […] oleic acid, organic solvent or mixture
[7] = for Flux: SD in parentheses
[8] = saturated salicylic acid in ethanol with […] of the fatty acid, 32° C.

SMILES: NC(CO)(CO)CO [Tris]
effect on oleic acid's action on stratum corneum lipids ([1]; concentration dependent): reduces the effect of oleic acid on stratum corneum lipids

Relative Flux ([2]; 0/100 v/v ethanol/buffer, […] v/v oleic acid (reference)): 1.0
Relative Flux ([2]; 20/80 v/v ethanol/buffer, […] v/v oleic acid, relative to 0/100 ethanol/buffer): 1.5
Relative Flux ([2]; 30/70 v/v ethanol/buffer, […] v/v oleic acid, relative to 0/100 ethanol/buffer): 1.8
Relative Flux ([2]; 40/60 v/v ethanol/buffer, […] v/v oleic acid, relative to 0/100 ethanol/buffer): 3.5
Relative Flux ([2]; 50/50 v/v ethanol/buffer, […] v/v oleic acid, relative to 0/100 ethanol/buffer): 5
Relative Flux ([2]; 60/40 v/v ethanol/buffer, […] v/v oleic acid, relative to 0/100 ethanol/buffer): 4.5
Relative Flux ([2]; 70/30 v/v ethanol/buffer, […] v/v oleic acid, relative to 0/100 ethanol/buffer): 4.5
Relative Flux ([2]; 100/0 v/v ethanol/buffer, […] v/v oleic acid, relative to 0/100 ethanol/buffer): 4.5
SMILES: CC(C)Cc1ccc(C(C)C(=O)O)cc1 (centres unmarked) [Ibuprofen, 2-(4-isobutylphenyl)propionic acid]

Flux of Salicylic Acid [4]: 0.79 mg/cm^2 /hr
SMILES: CCCCCCCCCCC/C=C\CCCCC(=O)O [Petroselenic]
Peak IR Frequency [3]: 2919.0 cm⁻¹
DSC Tm (temperature of the transition maximum) [5]: 60.5 °C

SMILES: CCCCCC/C=C/CCCCCCCCCC(=O)O [trans-vaccenic, trans-vaccenic acid]
Peak IR Frequency [3]: 2920 cm⁻¹
Flux of Salicylic Acid [4, 8]: 1.11 mg/cm^2 /hr
DSC Tm (temperature of the transition maximum) [5]: 61.0 °C

SMILES: CN1C(C(=O)Nc2ccccn2)=C(O)c2ccccc2S1(=O)=O [Piroxicam, 4-hydroxy-2-methyl-N-2-pyridinyl-2H-1,2-benzothiazine-3-carboxamide 1,1-dioxide]
solubility ([6]; 0/100 ethanol/buffer): 40 µg/mL (≈ 121 µM)
solubility ([6]; 10/90 ethanol/buffer): 190 µg/mL (≈ 573 µM)
solubility ([6]; 20/80 ethanol/buffer): 460 µg/mL (≈ 1390 µM)
solubility ([6]; 30/70 ethanol/buffer): 710 µg/mL (≈ 2140 µM)
solubility ([6]; 40/60 ethanol/buffer): 1200 µg/mL (≈ 3620 µM)
solubility ([6]; 50/50 ethanol/buffer): 1500 µg/mL (≈ 4530 µM)
solubility ([6]; 100/0 ethanol/buffer): 1200 µg/mL (≈ 3620 µM)

Flux ([7]; 20% v/v ethanol, 0.5% v/v Azone, 6.8 mg/ml, pH 8.8): 55.9 (38.8) mg/day/30 cm^2
Flux ([7]; 20% v/v ethanol, no Azone, 6.7 mg/ml, pH 8.9): 0.4 (0.04) mg/day/30 cm^2
Flux ([7]; 30% v/v ethanol, 0.5% v/v Azone, 8.1 mg/ml, pH 8.8): 101.4 (10.3) mg/day/30 cm^2
Flux ([7]; 30% v/v ethanol, no Azone, 8.2 mg/ml, pH 8.9): 0.6 (0.2) mg/day/30 cm^2
Flux ([7]; 55% v/v ethanol, 0.5% v/v Azone, 17.5 mg/ml, pH 8.8): 30.8 (6.5) mg/day/30 cm^2
Flux ([7]; 55% v/v ethanol, no Azone, 17.9 mg/ml, pH 9.1): 2.7 (0.5) mg/day/30 cm^2
in vitro transport ([7]; range over vehicles): 30.8 to 101.4 mg/day/30 cm^2
SMILES: Cc1cnc(C(=O)NCCc2ccc(S(=O)(=O)NC(=O)NC3CCCCC3)cc2)cn1 [Glipizide]

SMILES: CCCCCCCC/C=C/CCCCCCCC(=O)O [Elaidic, elaidic acid]
Peak IR Frequency [3]: 2919.4 cm⁻¹
Flux of Salicylic Acid [4]: 2.35 mg/cm^2 /hr
DSC Tm (temperature of the transition maximum) [5]: 61.5 °C

SMILES: CCCCCCCCCCCCCCCCCC(=O)O [Stearic, stearic acid]
Peak IR Frequency [3]: 2918.0 ± 0.4 cm⁻¹
Peak IR Frequency ([3]; listed as stearic acid): 2918 to 2919 cm⁻¹
Flux of Salicylic Acid [4, 8]: 1.21 mg/cm^2 /hr
DSC Tm (temperature of the transition maximum) [5]: 62.5 ± 1.0 °C

SMILES: CCCCCCCC/C=C\CCCCCCCC(=O)O [Oleic Acid, cis-9-octadecenoic acid]
Flux of Salicylic Acid [4]: 3.81 mg/cm^2 /hr
flux of salicylic acid (in words) [4]: significantly greater
Lipid Transition Temperature, Tm ([1]; 0/100 PEG 200/0.1M Tris buffer (pH 6.8-7.3), […] v/v oleic acid): 59 °C
Lipid Transition Temperature, Tm ([1]; 0/100 ethanol/0.1M Tris buffer (pH 6.8-7.3), […] v/v oleic acid): 58 °C
Lipid Transition Temperature, Tm ([1]; 0/100 glycerin/0.1M Tris buffer (pH 6.8-7.3), […] v/v oleic acid): 58 °C
Lipid Transition Temperature, Tm ([1]; 0/100 v/v ethanol/Sorensen's buffer pH 7.3, […] v/v oleic acid): 57.5 °C
Lipid Transition Temperature, Tm ([1]; 20/40/40 ethanol/PG/0.1M Tris buffer (pH 6.8-7.3), […] v/v oleic acid): 55 °C
Lipid Transition Temperature, Tm ([1]; 20/80 PEG 200/0.1M Tris buffer (pH 6.8-7.3), […] v/v oleic acid): 59 °C
Lipid Transition Temperature, Tm ([1]; 20/80 ethanol/0.1M Tris buffer (pH 6.8-7.3), […] v/v oleic acid): 59 °C
Lipid Transition Temperature, Tm ([1]; 20/80 glycerin/0.1M Tris buffer (pH 6.8-7.3), […] v/v oleic acid): 62.5 °C
Lipid Transition Temperature, Tm ([1]; 20/80 v/v ethanol/Sorensen's buffer pH 7.3, […] v/v oleic acid): 54.5 °C
Lipid Transition Temperature, Tm ([1]; 30/70 v/v ethanol/Sorensen's buffer pH 7.3, […] v/v oleic acid): 54.0 °C
Lipid Transition Temperature, Tm ([1]; 33/33/34 ethanol/PG/0.1M Tris buffer (pH 6.8-7.3), […] v/v oleic acid): 59 °C
Lipid Transition Temperature, Tm ([1]; 34/66/0 ethanol/PG/0.1M Tris buffer (pH 6.8-7.3), […] v/v oleic acid): 61 °C
Lipid Transition Temperature, Tm ([1]; 40/20/40 ethanol/PG/0.1M Tris buffer (pH 6.8-7.3), […] v/v oleic acid): 58.5 °C
Lipid Transition Temperature, Tm ([1]; 40/40/20 ethanol/PG/0.1M Tris buffer (pH 6.8-7.3), […] v/v oleic acid): 60 °C
Lipid Transition Temperature, Tm ([1]; 40/60 PEG 200/0.1M Tris buffer (pH 6.8-7.3), […] v/v oleic acid): 57.5 °C
Lipid Transition Temperature, Tm ([1]; 40/60 ethanol/0.1M Tris buffer (pH 6.8-7.3), […] v/v oleic acid): 55 °C
Lipid Transition Temperature, Tm ([1]; 40/60 glycerin/0.1M Tris buffer (pH 6.8-7.3), […] v/v oleic acid): 57 °C
Lipid Transition Temperature, Tm ([1]; 40/60 v/v ethanol/Sorensen's buffer pH 7.3, […] v/v oleic acid): 53.2 ± 0.6 °C
Lipid Transition Temperature, Tm ([1]; 50/50 v/v ethanol/Sorensen's buffer pH 7.3, […] v/v oleic acid): 55.1 °C
Lipid Transition Temperature, Tm ([1]; 60/40 PEG 200/0.1M Tris buffer (pH 6.8-7.3), […] v/v oleic acid): 57 °C
Lipid Transition Temperature, Tm ([1]; 60/40 ethanol/0.1M Tris buffer (pH 6.8-7.3), […] v/v oleic acid): 59 °C
Lipid Transition Temperature, Tm ([1]; 60/40 glycerin/0.1M Tris buffer (pH 6.8-7.3), […] v/v oleic acid): 54 °C
Lipid Transition Temperature, Tm ([1]; 60/40 v/v ethanol/Sorensen's buffer pH 7.3, […] v/v oleic acid): 53.4 °C
Lipid Transition Temperature, Tm ([1]; 66/34/0 ethanol/PG/0.1M Tris buffer (pH 6.8-7.3), […] v/v oleic acid): 60 °C
Lipid Transition Temperature, Tm ([1]; 70/30 v/v ethanol/Sorensen's buffer pH 7.3, […] v/v oleic acid): 58.8 °C
Lipid Transition Temperature, Tm ([1]; 80/20 PEG 200/0.1M Tris buffer (pH 6.8-7.3), […] v/v oleic acid): 61 °C
Lipid Transition Temperature, Tm ([1]; 80/20 ethanol/0.1M Tris buffer (pH 6.8-7.3), […] v/v oleic acid): 61 °C
Lipid Transition Temperature, Tm ([1]; 80/20 glycerin/0.1M Tris buffer (pH 6.8-7.3), […] v/v oleic acid): 59 °C
Lipid Transition Temperature, Tm ([1]; 100/0 v/v ethanol/Sorensen's buffer pH 7.3, […] v/v oleic acid): 66.4 °C
DSC Tm (temperature of the transition maximum) [5]: 59.0 ± 1.5 °C

SMILES: CCCCCC/C=C\CCCCCCCCCC(=O)O [cis-vaccenic, cis-11-octadecenoic acid]
flux of salicylic acid (in words) ([4]; difference relative to the controls and trans-vaccenic acid): even greater
Flux of Salicylic Acid [4, 8]: 5.53 mg/cm^2 /hr
DSC Tm (temperature of the transition maximum) [5]: 57.0 °C

— patent US5196410A, “Transdermal flux enhancing compositions” (priority 1991, dated 1993)
